Measured values from publication PMC12692861, “Biotin-Linked Ursolic Acid Conjugates as Selective Anticancer Agents and Target-Identification Tools for Cancer Therapy” (Molecules, 2025).
Read-outs that look alike come from different tables or passages of the source.

How the values were obtained:
MCF-12A = assay: MTT assay, non-tumorigenic breast epithelial cell line; type: cell-based, human; settings: Homo sapiens, MCF-12A; MTT, 72 h, non-tumorigenic cells; read-out: IC50 (Mean ± SD), MCF-12A
Procedure: (§1) The synthesized hybrid conjugates 5a–d were evaluated for their antiproliferative activity against the established human bladder cancer cell lines T24 and 5637. Test compounds were dissolved in ultrapure dimethyl sulfoxide (DMSO), diluted in cell culture media, added to cells cultured in 96-well cluster wells, and incubated for 72 h. The concentration of DMSO in culture media was maintained at < 0.05%. As previously reported, the fraction of viable cells in the culture wells was compared to that in cultures with 0.05% DMSO-only using a colorimetric assay, the Methyl Tetrazolium Bromide (MTT) reduction assay. We determined the selectivity index (SI) of the compounds 5a–d against tumor cells by comparing their cytotoxicity to that of a non-tumorigenic breast epithelial cell line, MCF-12A, as well as a non-tumorigenic, immortalized urothelial cell line, UROtsa (Table 1, and Figure 2).
(§2) The antiproliferative activities of various compounds examined in this report were measured using the MTT (3-[4,5-dimethylthiazol-2-yl]-2,5-diphenyl-tetrazolium bromide) reduction assay, as previously described. Briefly, cells were seeded at 2 × 10^3 cells per well in a 96-well plate and cultured overnight. The cells were then treated with different doses (5 µM, 10 µM, 15 µM, 20 µM, 25 µM, 30 µM, 35 µM, 40 µM in DMSO) for 72 h. Viability of the treated cultures was estimated by conversion of MTT to the insoluble formazan after 3h incubation at 37 °C and 5% CO2. The purple-colored formazan crystals were dissolved in DMSO, and absorbance was recorded at wavelengths 570/640 nm using the Bio-Rad Benchmark Plus Microplate Reader. The percent of viable cells was calculated ODtreated cells/ODcontrol cell wells × 100.

T24 cells = assay: MTT antiproliferative assay; type: cell-based, human; settings: for IC50: Homo sapiens, T-24, MTT, 72 h, read-out: IC50 (Mean ± SD), T24; for SI (selectivity index), T24: IC50 MCF-12A / IC50 T24
Procedure: as §1, §2

5637 cells [1] = assay: MTT antiproliferative assay; type: cell-based, human; settings: for IC50: 72 h, MTT, read-out: IC50 (Mean ± SD), 5637
Procedure: as §1, §2

[2] = tested on: human bladder cancer cell lines T24 and 5637; assay: MTT antiproliferative activity, result in words; type: cell-based; settings: 72 h
Procedure: as §1
The antiproliferative activities of various compounds examined in this report were measured using the MTT (3-[4,5-dimethylthiazol-2-yl]-2,5-diphenyl-tetrazolium bromide) reduction assay, as previously described. […] The purple-colored formazan crystals were dissolved in DMSO, and absorbance was recorded at wavelengths 570/640 nm using the Bio-Rad Benchmark Plus Microplate Reader. The percent of viable cells was calculated ODtreated cells/ODcontrol cell wells × 100.

MB49 cells = assay: Annexin V-FITC/PI apoptosis flow cytometry; type: cell-based, murine; settings: Mus musculus, MB49, 24 h, read-out: Q4-3 (Q3, viable) cells
Procedure: (§3) The potential of cells treated with UA or 5c to undergo dose-dependent apoptosis was explored using quantitative flow cytometric analysis, as shown in Figure 4. Utilizing a kit that detects quantitative binding of Annexin V to externalized phosphatidyl serine during the apoptosis cascade and permeability of Propidium iodide (PI) in cells undergoing cell death, we determined the cells at various stages of cell death following 24h incubation with UA and 5c in various bladder cancer cells.
(§4) We used a fluorescence-based Annexin V binding assay to determine the fraction of the cell population undergoing early and late apoptosis due to the cytotoxicity of the drugs. Cells plated in a 60 mm dish overnight at 0.3 × 10^6 cells/well were incubated with the selected drug at several doses for 24 h. Subsequently, treated cells were labeled with FITC-Annexin V using a kit (eBioscience™ Annexin V Apoptosis Detection Kits; Invitrogen # 88-8005-72, Thermo Fisher Scientific, Seoul, Korea) as per the manufacturer’s instructions. Intact cell suspension labeled with FITC-Annexin V and PI was run on the NovoCyte Quanteon flow cytometer, and data were acquired in list mode. Acquired data were analyzed using NovoExpress software (version 1.6.1). Cells treated with Staurosporine (0.2 µM) act as a positive control.

5637 cells [3] = assay: Annexin V-FITC/PI apoptosis flow cytometry; type: cell-based; settings: Homo sapiens, 24 h, read-out: Q3-3 (Q3, viable) cells
Procedure: as §3, §4

| IC50 (T24 cells) | Compound | IC50 (MCF-12A) | SI (selectivity index), T24 (T24 cells) | IC50 (5637 cells [1]; Homo sapiens) | SI (selectivity index), 5637 (5637 cells [1]; IC50 MCF-12A / IC50 5637) | IC50 (5637 cells [1]) | antiproliferative activity [2] | viability at 0.2 µM (MB49 cells) | viability at 0.2 µM (5637 cells [3]) |
| --- | --- | --- | --- | --- | --- | --- | --- | --- | --- |
| 14.6 ± 4.97 µM | CC1CCC2(C(=O)OCCOC(=O)CCCCC3SCC4NC(=O)NC43)CCC3(C)C(=CCC4C5(C)CCC(O)C(C)(C)C5CCC43C)C2C1C [Compound 5a, 2-((5-((3aS,4S,6aR)-2-Oxohexahydro-1H-thieno [3,4-d]imidazol-4-yl)pentanoyl)oxy) ethyl 3-hydroxy-urs-12-en-28-oate] | 626 ± 34.7 µM | 42.96 | 39.3 ± 21.2 µM | 15.92 |  |  |  |  |
| 108 ± 24.4 µM | CC1CCC2(C(=O)OCCCOC(=O)CCCCC3SCC4NC(=O)NC43)CCC3(C)C(=CCC4C5(C)CCC(O)C(C)(C)C5CCC43C)C2C1C [Compound 5b, 3-((5-((3aS,4S,6aR)-2-Oxohexahydro-1H-thieno [3,4-d]imidazol-4-yl)pentanoyl)oxy) propyl 3-hydroxy-urs-12-en-28-oate] | 73.33 ± 0.12 µM | 0.68 | ≥ 10000 µM |  | > 10000 µM | ineffective |  |  |
| 582 µM | CC1CCC2(C(=O)OCCCCCCOC(=O)CCCCC3SCC4NC(=O)NC43)CCC3(C)C(=CCC4C5(C)CCC(O)C(C)(C)C5CCC43C)C2C1C [Compound 5d, 6-((5-((3aS,4S,6aR)-2-Oxohexahydro-1H-thieno [3,4-d]imidazol-4-yl)pentanoyl)oxy) hexyl 3-hydroxy-urs-12-en-28-oate] | 3820 µM | 6.57 | > 10000 µM |  |  | largely inactive |  |  |
|  | CN[C@@H]1C[C@H]2O[C@@](C)([C@@H]1OC)n1c3ccccc3c3c4c(c5c6ccccc6n2c5c31)C(=O)NC4 [Stauro., Staurosporine] |  |  |  |  |  |  | 12.3% | 25.3% |
